Source: ChEMBL document CHEMBL5291721, “A preclinical secondary pharmacology resource illuminates target-adverse drug reaction associations of marketed drugs” (Nat Commun, 2023)

Assays:
[1] = biological target: Sodium-dependent dopamine transporter (Homo sapiens, UniProt Q01959)
D(1A) dopamine receptor = D(1A) dopamine receptor (Homo sapiens, UniProt P21728)
[2] = biological target: T1, 5-hydroxytryptamine receptor 2B (Homo sapiens, UniProt P41595); format: functional, cell-based
Adenosine receptor A3 = biological target: T2, Adenosine receptor A3 (Homo sapiens, UniProt P0DMS8)
T2 sequence (P0DMS8 whole entry): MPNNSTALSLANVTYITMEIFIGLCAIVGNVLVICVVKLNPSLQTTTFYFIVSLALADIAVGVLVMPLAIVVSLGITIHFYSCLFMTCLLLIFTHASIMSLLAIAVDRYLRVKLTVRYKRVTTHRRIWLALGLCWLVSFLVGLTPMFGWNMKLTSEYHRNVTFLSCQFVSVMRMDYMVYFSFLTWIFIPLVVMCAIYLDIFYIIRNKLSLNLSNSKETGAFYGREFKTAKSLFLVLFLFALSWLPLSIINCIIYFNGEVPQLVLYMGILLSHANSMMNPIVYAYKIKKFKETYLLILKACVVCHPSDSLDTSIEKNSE

[3] = biological target: T3, 5-hydroxytryptamine receptor 1A (Homo sapiens, UniProt P08908)
T3 sequence (P08908 whole entry): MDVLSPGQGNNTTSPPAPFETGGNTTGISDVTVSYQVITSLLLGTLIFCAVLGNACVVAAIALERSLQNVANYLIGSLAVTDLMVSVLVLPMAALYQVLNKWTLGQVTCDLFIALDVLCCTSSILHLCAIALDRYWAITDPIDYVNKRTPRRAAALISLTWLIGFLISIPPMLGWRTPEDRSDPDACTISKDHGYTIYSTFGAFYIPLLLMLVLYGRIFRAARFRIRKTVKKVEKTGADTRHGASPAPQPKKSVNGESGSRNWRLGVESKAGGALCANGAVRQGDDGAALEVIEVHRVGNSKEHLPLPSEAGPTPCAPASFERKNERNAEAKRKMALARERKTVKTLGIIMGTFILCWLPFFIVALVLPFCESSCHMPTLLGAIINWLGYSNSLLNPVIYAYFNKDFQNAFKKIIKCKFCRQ

[4] = biological target: T4, Alpha-1A adrenergic receptor (Homo sapiens, UniProt P35348); format: functional, cell-based
T4 sequence (P35348 whole entry): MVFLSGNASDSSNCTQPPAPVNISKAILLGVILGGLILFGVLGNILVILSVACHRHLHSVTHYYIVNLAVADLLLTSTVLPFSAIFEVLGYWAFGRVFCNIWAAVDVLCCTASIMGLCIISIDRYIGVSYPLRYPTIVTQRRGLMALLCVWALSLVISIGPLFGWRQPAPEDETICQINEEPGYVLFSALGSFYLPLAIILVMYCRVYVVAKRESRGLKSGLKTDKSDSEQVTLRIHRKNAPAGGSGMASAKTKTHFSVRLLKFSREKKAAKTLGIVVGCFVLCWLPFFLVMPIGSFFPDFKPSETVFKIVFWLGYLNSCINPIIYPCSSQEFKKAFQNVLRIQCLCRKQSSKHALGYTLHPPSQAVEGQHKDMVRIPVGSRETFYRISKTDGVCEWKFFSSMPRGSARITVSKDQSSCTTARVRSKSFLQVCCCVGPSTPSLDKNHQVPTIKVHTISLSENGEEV

[5] = biological target: Sodium-dependent noradrenaline transporter (Homo sapiens, UniProt P23975)
Progesterone receptor = biological target: T5, Progesterone receptor (Homo sapiens, UniProt P06401); format: functional
T5 sequence (P06401 whole entry): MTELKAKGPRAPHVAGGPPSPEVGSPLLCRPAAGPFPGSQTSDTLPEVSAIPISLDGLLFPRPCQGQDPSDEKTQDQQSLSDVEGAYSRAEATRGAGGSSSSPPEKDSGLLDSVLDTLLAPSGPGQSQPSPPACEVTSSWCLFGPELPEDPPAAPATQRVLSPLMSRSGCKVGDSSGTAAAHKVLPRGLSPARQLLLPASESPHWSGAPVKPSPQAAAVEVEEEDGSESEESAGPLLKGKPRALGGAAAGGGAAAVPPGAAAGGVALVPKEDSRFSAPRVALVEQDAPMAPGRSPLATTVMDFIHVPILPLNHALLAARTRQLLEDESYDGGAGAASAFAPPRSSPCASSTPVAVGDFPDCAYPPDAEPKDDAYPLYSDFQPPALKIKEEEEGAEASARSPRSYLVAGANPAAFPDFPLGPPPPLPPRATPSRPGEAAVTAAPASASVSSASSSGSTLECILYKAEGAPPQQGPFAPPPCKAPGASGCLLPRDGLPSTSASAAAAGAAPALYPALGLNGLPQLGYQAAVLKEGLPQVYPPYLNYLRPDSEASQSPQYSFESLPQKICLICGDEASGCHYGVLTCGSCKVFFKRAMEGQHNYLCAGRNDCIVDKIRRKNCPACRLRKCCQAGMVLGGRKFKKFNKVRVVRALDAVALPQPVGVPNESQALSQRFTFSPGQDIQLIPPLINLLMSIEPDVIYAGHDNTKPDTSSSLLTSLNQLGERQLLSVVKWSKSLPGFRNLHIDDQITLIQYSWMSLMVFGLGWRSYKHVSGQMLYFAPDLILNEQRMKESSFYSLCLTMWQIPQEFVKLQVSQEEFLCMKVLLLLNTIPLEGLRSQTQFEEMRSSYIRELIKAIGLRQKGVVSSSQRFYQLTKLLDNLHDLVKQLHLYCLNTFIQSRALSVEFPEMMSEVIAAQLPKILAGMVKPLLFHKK

Histamine H3 receptor = Histamine H3 receptor (Homo sapiens, UniProt Q9Y5N1)
[6] = biological target: T3, 5-hydroxytryptamine receptor 1A; format: functional, cell-based
[7] = biological target: Muscarinic acetylcholine receptor M3 (Homo sapiens, UniProt P20309)
[8] = biological target: T1, 5-hydroxytryptamine receptor 2B; format: functional, cell-based; remark: listed apart in the source
[9] = biological target: Glutamate receptor ionotropic, NMDA 1 (Rattus norvegicus, UniProt P35439)
Further: assay procedure not described here.

Sodium-dependent dopamine transporter, sequence (Q01959 whole entry): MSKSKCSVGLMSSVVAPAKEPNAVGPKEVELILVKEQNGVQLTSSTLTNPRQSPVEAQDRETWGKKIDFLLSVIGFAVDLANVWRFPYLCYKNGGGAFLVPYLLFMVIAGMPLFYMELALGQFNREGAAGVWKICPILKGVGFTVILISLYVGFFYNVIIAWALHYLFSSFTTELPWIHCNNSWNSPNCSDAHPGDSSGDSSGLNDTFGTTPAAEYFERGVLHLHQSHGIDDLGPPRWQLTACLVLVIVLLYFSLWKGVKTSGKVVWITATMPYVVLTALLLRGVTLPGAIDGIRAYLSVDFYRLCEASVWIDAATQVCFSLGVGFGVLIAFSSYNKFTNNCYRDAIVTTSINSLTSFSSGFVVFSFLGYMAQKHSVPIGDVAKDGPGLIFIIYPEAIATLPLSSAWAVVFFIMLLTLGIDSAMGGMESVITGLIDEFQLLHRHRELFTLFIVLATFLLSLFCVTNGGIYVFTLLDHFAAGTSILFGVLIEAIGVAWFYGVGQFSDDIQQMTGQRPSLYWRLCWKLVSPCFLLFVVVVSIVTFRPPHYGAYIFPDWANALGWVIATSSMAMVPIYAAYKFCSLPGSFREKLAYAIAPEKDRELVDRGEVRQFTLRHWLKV
Histamine H3 receptor, sequence (Q9Y5N1 whole entry): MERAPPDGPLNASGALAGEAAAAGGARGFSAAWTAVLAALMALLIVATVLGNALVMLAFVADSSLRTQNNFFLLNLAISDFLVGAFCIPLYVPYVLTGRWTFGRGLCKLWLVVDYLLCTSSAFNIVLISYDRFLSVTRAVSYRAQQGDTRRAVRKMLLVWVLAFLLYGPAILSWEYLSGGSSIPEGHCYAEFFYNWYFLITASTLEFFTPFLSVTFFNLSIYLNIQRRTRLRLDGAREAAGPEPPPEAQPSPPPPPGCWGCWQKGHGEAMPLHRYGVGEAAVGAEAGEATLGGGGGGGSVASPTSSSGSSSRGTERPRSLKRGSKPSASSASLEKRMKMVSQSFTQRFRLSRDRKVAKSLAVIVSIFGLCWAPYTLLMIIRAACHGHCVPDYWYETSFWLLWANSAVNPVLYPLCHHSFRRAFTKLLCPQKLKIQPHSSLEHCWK
Sodium-dependent noradrenaline transporter, sequence (P23975 whole entry): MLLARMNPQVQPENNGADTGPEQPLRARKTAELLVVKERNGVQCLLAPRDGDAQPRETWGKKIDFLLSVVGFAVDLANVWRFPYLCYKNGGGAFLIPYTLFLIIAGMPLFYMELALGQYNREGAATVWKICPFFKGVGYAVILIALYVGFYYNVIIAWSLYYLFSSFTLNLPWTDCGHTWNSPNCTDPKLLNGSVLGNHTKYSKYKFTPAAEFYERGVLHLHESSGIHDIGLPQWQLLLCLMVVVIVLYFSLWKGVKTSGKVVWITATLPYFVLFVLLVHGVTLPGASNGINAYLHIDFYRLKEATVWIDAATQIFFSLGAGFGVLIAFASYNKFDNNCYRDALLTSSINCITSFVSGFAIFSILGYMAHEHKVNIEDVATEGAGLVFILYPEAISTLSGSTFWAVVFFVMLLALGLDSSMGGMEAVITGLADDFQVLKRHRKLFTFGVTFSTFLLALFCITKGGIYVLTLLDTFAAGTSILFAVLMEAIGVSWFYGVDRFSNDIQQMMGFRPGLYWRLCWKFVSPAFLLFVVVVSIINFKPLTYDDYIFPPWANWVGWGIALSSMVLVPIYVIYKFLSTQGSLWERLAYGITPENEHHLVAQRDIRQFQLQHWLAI
Muscarinic acetylcholine receptor M3, sequence (P20309 whole entry): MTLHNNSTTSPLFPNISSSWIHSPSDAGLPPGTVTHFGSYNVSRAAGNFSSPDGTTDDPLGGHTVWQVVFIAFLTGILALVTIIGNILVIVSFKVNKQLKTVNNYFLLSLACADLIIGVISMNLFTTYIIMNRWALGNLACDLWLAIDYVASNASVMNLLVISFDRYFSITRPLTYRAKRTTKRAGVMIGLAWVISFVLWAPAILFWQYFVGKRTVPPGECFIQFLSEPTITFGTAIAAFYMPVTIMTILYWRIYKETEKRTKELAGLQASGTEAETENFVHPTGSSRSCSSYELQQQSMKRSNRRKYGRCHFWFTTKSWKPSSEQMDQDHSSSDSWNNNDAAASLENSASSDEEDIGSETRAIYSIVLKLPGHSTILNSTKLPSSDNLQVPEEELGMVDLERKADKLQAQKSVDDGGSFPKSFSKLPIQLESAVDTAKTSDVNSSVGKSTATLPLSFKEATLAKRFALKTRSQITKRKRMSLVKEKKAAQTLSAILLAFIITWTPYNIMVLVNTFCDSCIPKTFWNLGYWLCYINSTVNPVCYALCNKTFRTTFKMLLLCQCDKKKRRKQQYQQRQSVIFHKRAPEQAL
T1 sequence (P41595 whole entry): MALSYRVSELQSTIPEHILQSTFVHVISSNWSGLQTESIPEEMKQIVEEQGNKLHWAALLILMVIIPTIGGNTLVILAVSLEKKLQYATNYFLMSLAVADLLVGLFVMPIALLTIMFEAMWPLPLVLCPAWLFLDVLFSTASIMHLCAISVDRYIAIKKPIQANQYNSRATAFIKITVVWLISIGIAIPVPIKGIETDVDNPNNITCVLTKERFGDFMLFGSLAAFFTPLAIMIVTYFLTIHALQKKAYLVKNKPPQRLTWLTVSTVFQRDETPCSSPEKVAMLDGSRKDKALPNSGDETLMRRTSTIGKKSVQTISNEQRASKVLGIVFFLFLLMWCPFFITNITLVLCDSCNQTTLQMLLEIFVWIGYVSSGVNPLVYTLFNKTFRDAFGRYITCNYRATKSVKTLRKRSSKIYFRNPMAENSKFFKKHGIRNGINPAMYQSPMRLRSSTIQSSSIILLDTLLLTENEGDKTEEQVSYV
D(1A) dopamine receptor, sequence (P21728 whole entry): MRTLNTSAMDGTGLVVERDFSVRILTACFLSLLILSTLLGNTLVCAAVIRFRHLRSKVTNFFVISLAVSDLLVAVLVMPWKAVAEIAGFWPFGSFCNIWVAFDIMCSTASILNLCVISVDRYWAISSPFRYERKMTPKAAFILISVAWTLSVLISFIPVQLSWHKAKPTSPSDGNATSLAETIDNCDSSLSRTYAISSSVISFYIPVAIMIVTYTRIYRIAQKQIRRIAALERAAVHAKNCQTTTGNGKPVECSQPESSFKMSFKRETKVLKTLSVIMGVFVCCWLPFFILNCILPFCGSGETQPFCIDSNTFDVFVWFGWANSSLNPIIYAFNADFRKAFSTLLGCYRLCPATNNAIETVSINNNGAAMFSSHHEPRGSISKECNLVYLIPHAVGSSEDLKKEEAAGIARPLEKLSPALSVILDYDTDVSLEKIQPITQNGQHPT

| Compound | AC50 [1] | AC50 (D(1A) dopamine receptor) | AC50 [2] | AC50 (Adenosine receptor A3) | AC50 [3] | AC50 [4] | AC50 [5] | AC50 (Progesterone receptor) | AC50 (Histamine H3 receptor) | AC50 [6] | AC50 [7] | AC50 [8] | AC50 [9] |
| --- | --- | --- | --- | --- | --- | --- | --- | --- | --- | --- | --- | --- | --- |
| C[N+](C)(C)CCO [CHOLINE] | > 30 µM | > 30 µM | > 30 µM | > 30 µM | > 30 µM | > 30 µM | > 30 µM | – | – | – | – | – | – |
| COC(c1ccccc1)(c1ccccc1)[C@H](Oc1nc(C)cc(C)n1)C(=O)O [AMBRISENTAN] | > 30 µM | > 30 µM | > 30 µM | > 30 µM | > 30 µM | > 30 µM | > 30 µM | – | – | – | – | – | – |
| OCCN1C[C@H](O)[C@@H](O)[C@H](O)[C@H]1CO [MIGLITOL] | > 30 µM | > 30 µM | > 30 µM | > 30 µM | > 30 µM | > 30 µM | > 30 µM | – | – | – | – | – | – |
| C1CCC(C(CC2CCCCN2)C2CCCCC2)CC1 (centres undefined) [PERHEXILINE] | – | – | – | – | – | – | – | > 30 µM | > 30 µM | > 3 µM | – | – | – |
| CCCCCCOc1nsnc1C1=CCCN(C)C1 [XANOMELINE] | 3.37 µM | 1.22 µM | > 30 µM | > 30 µM | 0.243 µM | 13.2 µM | 2.74 µM | – | – | – | – | – | – |
| COCc1c(C(C)C)nc(C(C)C)c(/C=C/[C@@H](O)C[C@@H](O)CC(=O)O)c1-c1ccc(F)cc1 [CERIVASTATIN] | > 30 µM | > 30 µM | > 30 µM | > 30 µM | > 30 µM | > 30 µM | > 30 µM | – | – | – | – | – | – |
| C[N+]1(C)CCC(OC(=O)C(O)(c2ccccc2)C2CCCC2)C1 (centres undefined) [GLYCOPYRRONIUM BROMIDE] | – | – | – | – | – | – | – | > 10 µM | – | – | – | – | – |
| COc1cc(NC(C)CCCN)c2ncccc2c1 (centres undefined) [PRIMAQUINE] | – | – | – | 14.7 µM | – | – | – | 20 µM | – | – | – | – | – |
| CN(C)CC(c1ccc(O)cc1)C1(O)CCCCC1 (centres undefined) [DESVENLAFAXINE] | – | > 30 µM | > 30 µM | > 30 µM | > 30 µM | > 30 µM | – | – | – | – | – | – | – |
| C[C@H]1CNCCc2ccc(Cl)cc21 [LORCASERIN] | – | – | – | – | – | – | – | > 30 µM | > 30 µM | 4.4 µM | > 30 µM | – | – |
| CN(C)CCN1C(=O)c2ccccc2N(C)c2ccccc21 [DIBENZEPIN] | > 30 µM | 14.3 µM | > 30 µM | > 30 µM | 0.306 µM | 22.5 µM | 0.212 µM | – | – | – | – | – | – |
| CCc1oc2ccccc2c1C(=O)c1cc(I)c(O)c(I)c1 [BENZIODARONE] | 9.96 µM | 10 µM | > 30 µM | – | 12.4 µM | – | 12.6 µM | – | – | – | – | – | – |
| COc1ccc(CC(C)(C)NC[C@H](O)c2cc(O)cc3c2OCC(=O)N3)cc1 [OLODATEROL] | – | – | – | – | – | – | – | > 30 µM | > 30 µM | 29 µM | > 30 µM | 6.65 µM | – |
| CN(C)CCn1nnnc1SCC1=C(C(=O)O)N2C(=O)[C@@H](NC(=O)Cc3csc(N)n3)[C@H]2SC1 [CEFOTIAM] | > 30 µM | > 30 µM | > 30 µM | > 30 µM | > 30 µM | > 30 µM | > 30 µM | – | – | – | – | – | – |
| Cc1nc([N+](=O)[O-])cn1-c1ccc([N+](=O)[O-])cc1 [NITREFAZOLE] | – | – | – | – | – | – | – | > 30 µM | > 30 µM | – | > 30 µM | > 30 µM | > 30 µM |
| O=C(O[C@H]1C[C@H]2CC[C@@H](C1)[N+]21CCCC1)C(O)(c1ccccc1)c1ccccc1 [TROSPIUM] | – | – | – | – | – | – | – | > 30 µM | > 30 µM | > 30 µM | 0.0089 µM | > 30 µM | > 30 µM |
| CC(=O)NCCCS(=O)(=O)O [ACAMPROSATE] | – | – | – | – | – | – | – | > 30 µM | > 30 µM | > 30 µM | > 30 µM | > 30 µM | – |
| c1cnc(N2CCN(Cc3ccc4c(c3)OCO4)CC2)nc1 [PIRIBEDIL] | – | – | – | – | – | – | – | > 30 µM | > 30 µM | 20 µM | > 30 µM | 2.3 µM | – |
| COCCCN1CCC(NC(=O)c2cc(Cl)c(N)c3c2OCC3)CC1 [PRUCALOPRIDE] | > 30 µM | > 30 µM | > 30 µM | – | 6.1 µM | > 30 µM | > 30 µM | > 30 µM | > 30 µM | > 30 µM | > 30 µM | > 30 µM | – |
| N[C@@H]1[C@H]2CN(c3nc4c(cc3F)c(=O)c(C(=O)O)cn4-c3ccc(F)cc3F)C[C@@H]12 [TROVAFLOXACIN] | – | – | – | – | – | – | – | > 30 µM | > 30 µM | > 30 µM | – | > 30 µM | – |
| O=C(Cc1ccc(-c2ccccc2)cc1)Nc1ccccn1 [DIFENPIRAMIDE] | 0.58 µM | > 30 µM | > 30 µM | – | > 30 µM | > 30 µM | 2.16 µM | – | – | – | > 30 µM | > 30 µM | > 30 µM |
| CN(C)CCC=C1c2ccccc2C(C)(C)c2ccccc21 | – | – | – | – | – | – | – | > 30 µM | 25 µM | > 30 µM | 0.38 µM | 4.34 µM | – |
| CCCCN1C[C@H](O)[C@@H](O)[C@H](O)[C@H]1CO | – | – | – | – | – | – | – | > 30 µM | > 30 µM | – | > 30 µM | > 30 µM | > 30 µM |
| CNC1Cc2ccccc2N(C)c2ccccc21 (centres undefined) [METAPRAMINE] | – | – | – | – | – | – | – | > 30 µM | > 30 µM | > 30 µM | > 30 µM | – | – |
| COc1cc2nc(N(C)CCCNC(=O)C3CCCO3)nc(N)c2cc1OC (centres undefined) [ALFUZOSIN] | – | – | – | – | – | – | – | > 30 µM | > 30 µM | – | > 30 µM | > 30 µM | > 30 µM |
| Nc1nc(NC2CC2)c2ncn([C@H]3C=C[C@@H](CO)C3)c2n1 [ABACAVIR] | – | – | – | – | – | – | – | > 30 µM | > 30 µM | – | > 30 µM | – | > 30 µM |
| Cc1cc(C#N)cc(C)c1Oc1nc(Nc2ccc(C#N)cc2)nc(N)c1Br [ETRAVIRINE] | > 10 µM | 4.53 µM | > 30 µM | – | > 30 µM | > 10 µM | 5.88 µM | – | – | – | – | – | – |
| C=C[C@H]1C[N@@]2CC[C@H]1C[C@H]2[C@H](O)c1ccnc2ccc(OC)cc12 [QUININE] | > 30 µM | > 30 µM | > 30 µM | > 30 µM | > 30 µM | – | > 30 µM | – | – | – | – | – | – |
